Data published in ChEMBL document CHEMBL4813984, “An original pronucleotide strategy for the simultaneous delivery of two bioactive drugs” (Eur J Med Chem, 2021).

What was measured:
[1] = tested on: Human immunodeficiency virus 1; test: Antiviral activity against HIV-1 infected in human CEM-SS cells assessed as reduction in viral multiplication by measuring decrease in reverse transcriptase activity incubated for 5 days; format: functional, organism-based; conditions: Human immunodeficiency virus 1, CEM-SS, 120 h
[2] = Cytotoxicity against human CEM-SS cells assessed as reduction in cell viability incubated for 5 days by MTT assay; format: cell-based; conditions: time 5 day
[3] = Selectivity index, ratio of CC50 for human CEM-SS cells to EC50 for antiviral activity against HIV-1 infected in human CEM-SS cells; format: toxicity, cell-based; conditions: read-out: Ratio CC50/EC50
[4] = tested on: Human immunodeficiency virus 1; test: Antiviral activity against HIV-1 infected in human MT4 cells assessed as reduction in virus-indued cytopathogenicity incubated for 5 days by MTT assay; format: functional, organism-based; conditions: Human immunodeficiency virus 1, MT4, 120 h
[5] = Cytotoxicity against human MT4 cells assessed as reduction in cell viability incubated for 5 days by MTT assay; format: cell-based; conditions: time 5 day
[6] = Selectivity index, ratio of CC50 for human MT4 cells to EC50 for antiviral activity against HIV-1 infected in human MT4 cells; format: toxicity, cell-based; conditions: read-out: Ratio CC50/EC50
[7] = tested on: Human immunodeficiency virus 1; test: Antiviral activity against HIV-1 infected in human CEM-SS cells assessed as reduction in viral multiplication by measuring decrease in reverse transcriptase activity incubated for 5 days in presence of AZT; format: functional, organism-based; conditions: Human immunodeficiency virus 1, CEM-SS, 120 h
[8] = Cytotoxicity against human CEM-SS cells assessed as reduction in cell viability incubated for 5 days in presence of AZT by MTT assay; format: cell-based; conditions: time 5 day
[9] = Selectivity index, ratio of CC50 for human CEM-SS cells to EC50 for antiviral activity against HIV-1 infected in human CEM-SS cells in presence of AZT; format: toxicity, cell-based; conditions: read-out: Ratio CC50/EC50
[10] = tested on: Human immunodeficiency virus 1; test: Antiviral activity against HIV-1 infected in human CEM-SS cells assessed as reduction in viral multiplication by measuring decrease in reverse transcriptase activity incubated for 5 days in presence of ddA; format: functional, organism-based; conditions: Human immunodeficiency virus 1, CEM-SS, 120 h
[11] = Cytotoxicity against human CEM-SS cells assessed as reduction in cell viability incubated for 5 days in presence of ddA by MTT assay; format: cell-based; conditions: time 5 day
[12] = Selectivity index, ratio of CC50 for human CEM-SS cells to EC50 for antiviral activity against HIV-1 infected in human CEM-SS cells in presence of ddA; format: toxicity, cell-based; conditions: read-out: Ratio CC50/EC50
[13] = tested on: Human immunodeficiency virus 1; test: Antiviral activity against HIV-1 infected in human MT4 cells assessed as reduction in virus-indued cytopathogenicity incubated for 5 days in presence of AZT by MTT assay; format: functional, organism-based; conditions: Human immunodeficiency virus 1, MT4, 120 h
[14] = Cytotoxicity against human MT4 cells assessed as reduction in cell viability incubated for 5 days in presence of AZT by MTT assay; format: cell-based; conditions: time 5 day
[15] = Selectivity index, ratio of CC50 for human MT4 cells to EC50 for antiviral activity against HIV-1 infected in human MT4 cells in presence of AZT; format: toxicity, cell-based; conditions: read-out: Ratio CC50/EC50
[16] = tested on: Human immunodeficiency virus 1; test: Antiviral activity against HIV-1 infected in human MT4 cells assessed as reduction in virus-indued cytopathogenicity incubated for 5 days in presence of ddA by MTT assay; format: functional, organism-based; conditions: Human immunodeficiency virus 1, MT4, 120 h
[17] = Cytotoxicity against human MT4 cells assessed as reduction in cell viability incubated for 5 days in presence of ddA by MTT assay; format: cell-based; conditions: time 5 day
[18] = Selectivity index, ratio of CC50 for human MT4 cells to EC50 for antiviral activity against HIV-1 infected in human MT4 cells in presence of ddA; format: toxicity, cell-based; conditions: read-out: Ratio CC50/EC50
[19] = tested on: Human immunodeficiency virus 1; test: Antiviral activity against HIV-1 infected in human CEM-TK(-) cells assessed as reduction in viral multiplication by measuring decrease in reverse transcriptase activity incubated for 6 days; format: functional, organism-based; conditions: Human immunodeficiency virus 1, CEM-TK(-), 144 h
[20] = Cytotoxicity against human CEM-TK(-) cells assessed as reduction in cell viability incubated for 5 days by MTT assay; format: cell-based; conditions: time 5 day
[21] = Selectivity index, ratio of CC50 for human CEM-TK(-) cells to EC50 for antiviral activity against HIV-1 infected in human CEM-TK(-) cells; format: toxicity, cell-based; conditions: read-out: Ratio CC50/EC50
[22] = tested on: Human immunodeficiency virus 1; test: Antiviral activity against HIV-1 infected in human CEM-TK(-) cells assessed as reduction in viral multiplication by measuring decrease in reverse transcriptase activity incubated for 6 days in presence of AZT; format: functional, organism-based; conditions: Human immunodeficiency virus 1, CEM-TK(-), 144 h
[23] = Cytotoxicity against human CEM-TK(-) cells assessed as reduction in cell viability incubated for 5 days in presence of AZT by MTT assay; format: cell-based; conditions: time 5 day
[24] = Selectivity index, ratio of CC50 for human CEM-TK(-) cells to EC50 for antiviral activity against HIV-1 infected in human CEM-TK(-) cells in presence of AZT; format: toxicity, cell-based; conditions: read-out: Ratio CC50/EC50

Structure (SMILES)	EC50 [1] [µM]	CC50 at 120 h [2] [µM]	selectivity ratio [3]	EC50 [4] [µM]	CC50 at 120 h [5] [µM]	selectivity ratio [6]	EC50 [19] [µM]	CC50 at 120 h [20] [µM]	also measured
Nc1ncnc2c1ncn2[C@H]1CC[C@@H](CO)O1	2	> 110	> 55	9	> 110	> 12	–	–	–
Nc1ccn([C@H]2CC[C@@H](CO)O2)c(=O)n1 [ZALCITABINE]	0.067	16	239	2	180	90	0.015	7	EC50 [7]: 0.016 µM; CC50 at 120 h [8]: 46 µM; selectivity ratio [9]: 2880; EC50 [10]: 0.01 µM; CC50 at 120 h [11]: 46 µM; selectivity ratio [12]: 4600; EC50 [13]: 0.083 µM; CC50 at 120 h [14]: 130 µM; selectivity ratio [15]: 15700; EC50 [16]: 1.2 µM; CC50 at 120 h [17]: > 100 µM; selectivity ratio [18]: > 83; selectivity ratio [21]: 467; EC50 [22]: 0.009 µM; CC50 at 120 h [23]: 8.3 µM; selectivity ratio [24]: 922
Cc1cn([C@H]2C[C@H](N=[N+]=[N-])[C@@H](CO)O2)c(=O)[nH]c1=O [ZIDOVUDINE]	0.024	> 1000	> 40000	–	140	8240	> 100	> 1000	–
